Test results as given in PMC9908617 (Biochimica et Biophysica Acta. General Subjects, 2023).
“And” between values parts separate entries of the source, which are not always exact repeats. Equal entries are not always repeated. Where two headings read alike, the source gives them in different places.

Legend:
[1] = system: C[S+](CC[C@H](N)C(=O)[O-])C[C@H]1O[C@@H](n2cnc3c(N)ncnc32)[C@H](O)[C@@H]1O; assay: purified protein, by the assay type; settings: pH 7.5; 23.0 °C
[2] = molecular target: HCoV-HKU1 nsp10-nsp16 complex (Human coronavirus HKU1, UniProt P0C6X3); assay: biochemical
Sequence of HCoV-HKU1 nsp10-nsp16 complex (P0C6X3 6854-7152 limits assumed): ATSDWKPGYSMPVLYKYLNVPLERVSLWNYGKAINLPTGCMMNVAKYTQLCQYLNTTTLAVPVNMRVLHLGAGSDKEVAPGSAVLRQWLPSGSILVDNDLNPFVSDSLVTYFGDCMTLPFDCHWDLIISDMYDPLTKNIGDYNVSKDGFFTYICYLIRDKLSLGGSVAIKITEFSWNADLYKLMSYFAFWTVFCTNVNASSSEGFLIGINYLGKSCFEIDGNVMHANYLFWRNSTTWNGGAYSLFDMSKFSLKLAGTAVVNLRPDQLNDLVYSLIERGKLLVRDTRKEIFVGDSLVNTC
Sequence of HCoV-HKU1 nsp10-nsp16 complex (P0C6X3 4291-4427 partner limits assumed): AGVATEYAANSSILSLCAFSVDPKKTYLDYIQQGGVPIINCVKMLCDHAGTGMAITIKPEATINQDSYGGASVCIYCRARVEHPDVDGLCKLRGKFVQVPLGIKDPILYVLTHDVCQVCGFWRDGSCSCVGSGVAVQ

[3] = molecular target: HCoV-229E nsp10-nsp16 complex (Human coronavirus 229E, UniProt P0C6X1); assay: biochemical
Sequence of HCoV-229E nsp10-nsp16 complex (P0C6X1 6459-6758 limits assumed): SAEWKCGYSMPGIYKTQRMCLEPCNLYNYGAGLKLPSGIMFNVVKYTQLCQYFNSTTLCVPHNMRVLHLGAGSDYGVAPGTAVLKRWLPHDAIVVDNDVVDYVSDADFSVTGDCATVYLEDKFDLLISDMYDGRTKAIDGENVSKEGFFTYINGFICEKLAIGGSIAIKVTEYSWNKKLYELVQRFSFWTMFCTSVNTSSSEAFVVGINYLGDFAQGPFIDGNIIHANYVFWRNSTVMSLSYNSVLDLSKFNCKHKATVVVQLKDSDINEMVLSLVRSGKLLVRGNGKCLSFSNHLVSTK
Sequence of HCoV-229E nsp10-nsp16 complex (P0C6X1 3934-4068 partner limits assumed): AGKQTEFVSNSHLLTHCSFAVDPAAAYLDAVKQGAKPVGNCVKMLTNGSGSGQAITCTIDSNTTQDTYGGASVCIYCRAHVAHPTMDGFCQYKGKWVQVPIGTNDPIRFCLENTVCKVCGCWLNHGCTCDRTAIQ

[4] = molecular target: SARS-CoV-2 nsp10-nsp16 complex (Severe acute respiratory syndrome coronavirus 2, UniProt P0DTD1); assay: biochemical
[5] = molecular target: HCoV-OC43 nsp10-nsp16 complex (Human coronavirus OC43, UniProt P0C6X6); assay: biochemical
Sequence of HCoV-OC43 nsp10-nsp16 complex (P0C6X6 6797-7095 limits assumed): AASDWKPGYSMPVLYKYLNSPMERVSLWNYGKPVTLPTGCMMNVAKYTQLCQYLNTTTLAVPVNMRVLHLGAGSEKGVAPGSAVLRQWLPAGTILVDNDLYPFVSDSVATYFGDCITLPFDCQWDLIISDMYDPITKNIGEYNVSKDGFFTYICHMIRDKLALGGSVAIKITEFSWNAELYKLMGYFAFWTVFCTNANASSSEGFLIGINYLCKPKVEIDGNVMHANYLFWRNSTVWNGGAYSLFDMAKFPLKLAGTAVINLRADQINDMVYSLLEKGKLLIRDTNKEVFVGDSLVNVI
Sequence of HCoV-OC43 nsp10-nsp16 complex (P0C6X6 4233-4369 partner limits assumed): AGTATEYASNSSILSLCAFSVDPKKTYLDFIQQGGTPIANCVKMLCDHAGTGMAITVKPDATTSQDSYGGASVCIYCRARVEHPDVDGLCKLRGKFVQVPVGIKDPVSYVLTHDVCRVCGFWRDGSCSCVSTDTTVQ

[6] = molecular target: HCoV-NL63 nsp10-nsp16 complex (Human coronavirus NL63, UniProt P0C6X5); assay: biochemical; type: biochemical
Sequence of HCoV-NL63 nsp10-nsp16 complex (P0C6X5 6430-6729 limits assumed): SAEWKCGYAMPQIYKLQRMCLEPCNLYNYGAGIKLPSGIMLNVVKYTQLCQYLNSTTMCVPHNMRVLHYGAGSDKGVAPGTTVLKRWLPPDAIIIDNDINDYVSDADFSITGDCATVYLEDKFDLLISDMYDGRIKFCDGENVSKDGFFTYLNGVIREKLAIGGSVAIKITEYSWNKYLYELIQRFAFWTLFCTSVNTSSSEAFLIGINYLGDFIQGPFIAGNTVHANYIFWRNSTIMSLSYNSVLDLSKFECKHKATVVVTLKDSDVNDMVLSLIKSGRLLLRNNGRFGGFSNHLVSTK
Sequence of HCoV-NL63 nsp10-nsp16 complex (P0C6X5 3909-4043 partner limits assumed): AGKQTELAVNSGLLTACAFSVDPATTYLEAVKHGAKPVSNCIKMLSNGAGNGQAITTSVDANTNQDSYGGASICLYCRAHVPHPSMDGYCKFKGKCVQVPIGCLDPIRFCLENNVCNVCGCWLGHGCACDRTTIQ

With “HCoV-229E nsp10-nsp16 complex (Human coronavirus 229E)” the Km [1] was 1.8 ± 0.2 µM.

Nc1ncnc2c1ncn2[C@@H]1O[C@H](CSCC[C@H](N)C(=O)O)[C@@H](O)[C@H]1O [SAH, S-adenosylhomocysteine] was tested, and the IC50 [2] was 200 ± 50 nM, the IC50 ([2]; IC50, HCoV-HKU1, substrate RNA N7mGpppACCCCC 0.3 μM, 2 μM 3H-SAM) was 2100 ± 100 nM and the IC50 [3] was 900 ± 200 nM. For the same molecule, the IC50 [4] was 2900 nM and 500 nM, the IC50 [5] was 1400 ± 300 nM and the IC50 ([5]; IC50, HCoV-OC43, substrate RNA N7mGpppACCCCC 0.3 μM, 2 μM 3H-SAM) was 4400 ± 1200 nM. The “fold lower IC50 with N7mGpppAUUAAA versus N7mGpppACCCCC” value ([6]; HCoV-NL63) was 30 fold and the IC50 ([6]; IC50, HCoV-NL63, substrate RNA N7mGpppACCCCC 0.3 μM, 2 μM 3H-SAM) was 2400 ± 400 nM.

With “SARS-CoV-2 nsp10-nsp16 complex (Severe acute respiratory syndrome coronavirus 2)” the Km [1] was 5.0 ± 0.7 µM and 2.8 ± 0.4 µM.

With “HCoV-HKU1 nsp10-nsp16 complex (Human coronavirus HKU1 (isolate N2))” the Km [1] was 4.8 ± 1.2 µM and 2.3 ± 0.03 µM.

For “HCoV-OC43 nsp10-nsp16 complex (Human coronavirus OC43)”, the Km [1] was 7.1 ± 0.8 µM and 2.9 ± 0.4 µM.

With “SARS-CoV nsp10-nsp16 complex (Severe acute respiratory syndrome-related coronavirus)” the Km [1] was 5.7 ± 1.1 µM and 2.6 ± 0.4 µM.
